Laboratory results taken from patent US10646488B2 (Araxes Pharma LLC, priority 2016, dated 2020).

molecular target: T1, KRAS G12C 1-169, his-tagged protein, GDP-loaded (Homo sapiens, UniProt P01116, G12C); assay: Covalent binding (% modification) to KRAS G12C by mass spectrometry; conditions: covalent binding to KRAS G12C after a three minute incubation period; note: test concentration or dose not given here
T1 construct: KRAS G12C 1-169, his-tagged protein, GDP-loaded

Structure (SMILES) | Binding %
C=CC(=O)N1CCN(c2nc(N3CC(C)(N(C)C)C3)nc3c(F)c(-c4c(O)cccc4F)c(Cl)cc23)C[C@H]1C [Compound 163, 1-((2R)-4-(6-chloro-2-(3-(dimethylamino)-3-methylazetidin-1-yl)-8-fluoro-7-(2-fluoro-6-hydroxyphenyl)quinazolin-4-yl)-2-methyl-piperazin-1-yl) prop-2-en-1-one] | ++ (++ indicates binding activity from 50 to 90%)
C=CC(=O)N1CCN(c2nc(N3CC(N(CC)CC)C3)nc3c(F)c(-c4c(O)cccc4F)c(Cl)cc23)C[C@H]1C [Compound 164, 1-((2R)-4-(6-chloro-2-(3-(diethylamino)azetidin-1-yl)-8-fluoro-7-(2-fluoro-6-hydroxyphenyl)quinazolin-4-yl)-2-methyl-piperazin-1-yl) prop-2-en-1-one] | ++ (++ indicates binding activity from 50 to 90%)
C=CC(=O)N1C[C@H](C)N(c2nc(N3CC(N)C3)nc3c(F)c(-c4c(C)ccc5[nH]ncc45)c(Cl)cc23)C[C@H]1C [Compound 165, 1-((2R,5S)-4-(2-(3-aminoazetidin-1-yl)-6-chloro-8-fluoro-7-(5-methyl-1H-indazol-4-yl)quinazolin-4-yl)-2,5-dimethyl-piperazin-1-yl) prop-2-en-1-one] | ++ (++ indicates binding activity from 50 to 90%)
C=CC(=O)N1CCN(c2nc(N3CC(N(CC)CC)C3)nc3c(F)c(-c4c(C)ccc5[nH]ncc45)c(Cl)cc23)C[C@H]1C [Compound 166, 1-((2R)-4-(6-chloro-2-(3-(diethylamino)azetidin-1-yl)-8-fluoro-7-(5-methyl-1H-indazol-4-yl)quinazolin-4-yl)-2-methyl-piperazin-1-yl) prop-2-en-1-one] | ++ (++ indicates binding activity from 50 to 90%)
C=CC(=O)N1CCN(c2nc(N3CC(N(CC)CC)C3)nc3c(F)c(-c4c(C)ccc5[nH]ncc45)c(Cl)cc23)[C@@H](C)C1 [Compound 167, 1-((3S)-4-(6-chloro-2-(3-(diethylamino)azetidin-1-yl)-8-fluoro-7-(5-methyl-1H-indazol-4-yl)quinazolin-4-yl)-3-methyl-piperazin-1-yl) prop-2-en-1-one] | +++ (+++ indicates binding activity greater than 90%)
C=CC(=O)N1C[C@H](C)N(c2nc(N3CC(N(C)C)C3)nc3c(F)c(-c4ccccc4C(F)(F)F)c(Cl)cc23)C[C@H]1C [Compound 168, 1-((2R,5S)-4-(6-chloro-2-(3-(dimethylamino)azetidin-1-yl)-8-fluoro-7-(2-(trifluoromethyl)phenyl)quinazolin-4-yl)-2,5-dimethyl-piperazin-1-yl) prop-2-en-1-one] | ++ (++ indicates binding activity from 50 to 90%)
C=CC(=O)N1C[C@H](C)N(c2nc(OCCN3CC(F)(F)C3)nc3c(F)c(-c4cc(O)cc5ccccc45)c(Cl)cc23)C[C@H]1C [Compound 169, 1-((2R,5S)-4-(6-chloro-2-(2-(3,3-difluoroazetidin-1-yl)ethoxy)-8-fluoro-7-(3-hydroxynaphthalen-1-yl)quinazolin-4-yl)-2,5-dimethyl-piperazin-1-yl) prop-2-en-1-one] | ++ (++ indicates binding activity from 50 to 90%)
C=CC(=O)N1C[C@H](C)N(c2nc(N3CC4(CCN4C)C3)nc3c(F)c(-c4c(C)ccc5[nH]ncc45)c(Cl)cc23)C[C@H]1C [Compound 170, 1-((2R,5S)-4-(6-chloro-8-fluoro-7-(5-methyl-1H-indazol-4-yl)-2-(1-methyl-1,6-diazaspiro[3.3]heptan-6-yl)quinazolin-4-yl)-2,5-dimethyl-piperazin-1-yl) prop-2-en-1-one] | + (+ indicates binding activity greater than 0% and up to 50%)
C=CC(=O)N1CCN(c2nc(N3CC(C)(N(C)C)C3)nc3c(F)c(-c4c(C)ccc5[nH]ncc45)c(Cl)cc23)C[C@H]1C [Compound 171, 1-((2R)-4-(6-chloro-2-(3-(dimethylamino)-3-methylazetidin-1-yl)-8-fluoro-7-(5-methyl-1H-indazol-4-yl)quinazolin-4-yl)-2-methyl-piperazin-1-yl) prop-2-en-1-one] | ++ (++ indicates binding activity from 50 to 90%)
C=CC(=O)N1C[C@H](C)N(c2nc(OCCCN(C)C)nc3c(F)c(-c4c(O)cccc4F)c(Cl)cc23)C[C@H]1C [Compound 172, 1-((2R,5S)-4-(6-chloro-2-(3-(dimethylamino)propoxy)-8-fluoro-7-(2-fluoro-6-hydroxyphenyl)quinazolin-4-yl)-2,5-dimethyl-piperazin-1-yl) prop-2-en-1-one] | +++ (+++ indicates binding activity greater than 90%)
C=CC(=O)N1C[C@H](C)N(c2nc(N3CC4(CCN(C5CC5)CC4)C3)nc3c(F)c(-c4c(O)cccc4F)c(Cl)cc23)C[C@H]1C [Compound 173, 1-((2R,5S)-4-(6-chloro-2-(7-cyclopropyl-2,7-diazaspiro[3.5]nonan-2-yl)-8-fluoro-7-(2-fluoro-6-hydroxyphenyl)quinazolin-4-yl)-2,5-dimethyl-piperazin-1-yl) prop-2-en-1-one] | ++ (++ indicates binding activity from 50 to 90%)
C=CC(=O)N1CCN(c2nc(N3CC(N(CC)CC)C3)nc3c(F)c(-c4c(O)cccc4F)c(Cl)cc23)[C@@H](C)C1 [Compound 174, 1-((3S)-4-(6-chloro-2-(3-(diethylamino)azetidin-1-yl)-8-fluoro-7-(2-fluoro-6-hydroxyphenyl)quinazolin-4-yl)-3-methyl-piperazin-1-yl) prop-2-en-1-one] | +++ (+++ indicates binding activity greater than 90%)
C=CC(=O)N1C[C@H](C)N(c2nc(N3CC4(CCCN4C)C3)nc3c(F)c(-c4c(O)cccc4F)c(Cl)cc23)C[C@H]1C [Compound 177, 1-((2R,5S)-4-(6-chloro-8-fluoro-7-(2-fluoro-6-hydroxyphenyl)-2-(5-methyl-2,5-diazaspiro[3.4]octan-2-yl)quinazolin-4-yl)-2,5-dimethyl-piperazin-1-yl) prop-2-en-1-one] | ++ (++ indicates binding activity from 50 to 90%)
C=CC(=O)N1C[C@H](C)N(c2nc(N3CC(N(C)C)C3)nc3c(F)c(-c4cc(O)cc5ccccc45)c(C(F)(F)F)cc23)C[C@H]1C [Compound 178, 1-((2R,5S)-4-(2-(3-(dimethylamino)azetidin-1-yl)-8-fluoro-7-(3-hydroxynaphthalen-1-yl)-6-(trifluoromethyl)quinazolin-4-yl)-2,5-dimethyl-piperazin-1-yl) prop-2-en-1-one] | +++ (+++ indicates binding activity greater than 90%)
C=CC(=O)N1C[C@H](C)N(c2nc(N3CC(N(C)C)C3)nc3c(F)c(-c4cc(B5OC(C)(C)C(C)(C)O5)cc5ccccc45)c(Cl)cc23)C[C@H]1C [Compound 179, 1-((2R,5S)-4-(6-chloro-2-(3-(dimethylamino)azetidin-1-yl)-8-fluoro-7-(3-(4,4,5,5-tetramethyl-1,3,2-dioxaborolan-2-yl)naphthalen-1-yl)quinazolin-4-yl)-2,5-dimethyl-piperazin-1-yl) prop-2-en-1-one] | + (+ indicates binding activity greater than 0% and up to 50%)
C=CC(=O)N1C[C@H](C)N(c2nc(N3CC(N(C)C)C3)nc3c(F)c(-c4c(F)cccc4F)c(Cl)cc23)C[C@H]1C [Compound 180, 1-((2R,5S)-4-(6-chloro-7-(2,6-difluorophenyl)-2-(3-(dimethyl-amino)azetidin-1-yl)-8-fluoro-quinazolin-4-yl)-2,5-dimethyl-piperazin-1-yl) prop-2-en-1-one] | + (+ indicates binding activity greater than 0% and up to 50%)
